Data taken from patent US20120129842A1, “BISTHIAZOLE INHIBITORS OF PRO-MATRIX METALLOPROTEINASE ACTIVATION” (priority 2010, published 2012).
Structures can show the parent of a compound that is named as a salt.

Legend:
[1] = biological target: T1, proMMP9(20-445;ΔFnII) (SEQ ID NO:6) (Homo sapiens, UniProt P14780, DEL216-390); experiment: ThermoFluor binding assay with proMMP9(20-445;ΔFnII); settings: pH 7.0
T1 construct: start methionine (N); made in house; host or cells: E. coli BL21(DE3) RIL
T1 sequence (P14780 with tags, fused parts or gaps DEL216-390): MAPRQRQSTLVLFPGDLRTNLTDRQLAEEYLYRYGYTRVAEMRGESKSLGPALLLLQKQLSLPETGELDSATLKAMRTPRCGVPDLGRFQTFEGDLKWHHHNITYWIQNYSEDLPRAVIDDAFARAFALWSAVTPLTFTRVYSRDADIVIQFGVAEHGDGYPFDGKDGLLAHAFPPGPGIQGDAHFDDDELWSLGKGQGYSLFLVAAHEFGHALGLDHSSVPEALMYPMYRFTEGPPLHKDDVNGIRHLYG
Outline: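 proMMP9(20-445;ΔFnII) at 2.8 μM with 50 μM 1,8-ANS in 50 mM HEPES pH 7.0, 100 mM NaCl, 0.001% Tween-20, 2.5 mM MgCl2, 300 μM CaCl2; compounds serially diluted in DMSO. Heated 40–90 °C at 1 °C/min, fluorescence read at 500±25 nm. Tm fit by standard equations; binding fit using DSC/TF-derived thermodynamic parameters.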

[2] = biological target: T2, proMMP9(67-444;ΔFnII) (SEQ ID NO:5) (Homo sapiens, UniProt P14780, DEL216-390); experiment: ThermoFluor binding assay with proMMP9(67-444;ΔFnII); settings: pH 7.0
T2 construct: start methionine (N); made in house; host or cells: E. coli BL21(DE3) RIL
T2 sequence (P14780 with tags, fused parts or gaps DEL216-390): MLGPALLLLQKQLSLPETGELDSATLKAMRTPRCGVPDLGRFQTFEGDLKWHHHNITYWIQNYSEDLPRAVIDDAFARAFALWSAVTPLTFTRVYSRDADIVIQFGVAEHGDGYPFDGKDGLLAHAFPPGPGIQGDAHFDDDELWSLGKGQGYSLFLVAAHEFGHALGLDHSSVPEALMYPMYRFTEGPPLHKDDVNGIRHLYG
Outline: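 Thermal shift binding with 3.5 μM proMMP9(67-444;ΔFnII) and 50 μM 1,8-ANS in 50 mM HEPES pH 7.0, 100 mM NaCl, 2.5 mM MgCl2, 300 μM CaCl2, 0.001% Tween-20, with serially diluted compound. Heated 40 to 90° C at 1° C/min; fluorescence-derived Tm fitted using DSC/ThermoFluor thermodynamic parameters.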

[3] = biological target: T3, full-length proMMP9(1-707) (SEQ ID NO:1) (Homo sapiens, UniProt P14780, R574P); experiment: proMMP9/MMP3 P126 Activation Assay; assay type: biochemical; settings: 20 nM proMMP9, 20 nM MMP3, 80 min 37° C.
T3 construct: made in house; host or cells: HEK293 (proMMP9, secreted); E. coli (MMP3)
T3 sequence (P14780 20-707 R574P): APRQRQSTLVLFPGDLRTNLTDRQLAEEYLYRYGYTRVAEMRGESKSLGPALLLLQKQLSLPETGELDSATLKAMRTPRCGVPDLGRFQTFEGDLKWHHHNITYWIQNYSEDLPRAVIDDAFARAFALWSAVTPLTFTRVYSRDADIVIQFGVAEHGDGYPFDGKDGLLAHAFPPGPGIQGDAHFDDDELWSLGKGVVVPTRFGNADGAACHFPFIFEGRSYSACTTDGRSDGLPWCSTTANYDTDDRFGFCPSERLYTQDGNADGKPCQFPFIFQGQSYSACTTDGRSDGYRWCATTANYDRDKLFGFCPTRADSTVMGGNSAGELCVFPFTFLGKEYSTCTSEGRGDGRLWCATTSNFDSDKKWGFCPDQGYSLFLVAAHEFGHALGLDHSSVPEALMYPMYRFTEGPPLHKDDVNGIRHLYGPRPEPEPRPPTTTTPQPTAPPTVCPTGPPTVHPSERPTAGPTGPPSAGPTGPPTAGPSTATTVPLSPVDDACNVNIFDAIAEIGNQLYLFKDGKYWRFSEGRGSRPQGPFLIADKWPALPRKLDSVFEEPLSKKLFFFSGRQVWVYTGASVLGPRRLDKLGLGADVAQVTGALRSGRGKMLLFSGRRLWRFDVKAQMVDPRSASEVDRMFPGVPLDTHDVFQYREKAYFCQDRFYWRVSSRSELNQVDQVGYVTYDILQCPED
Protocol: The reaction volume was 50 μL. […] Reactivity of residual MMP3 towards P-126 substrate was minimal under these conditions.

[4] = biological target: proMMP13(1-268) (SEQ ID NO:7) (Homo sapiens, UniProt P45452); experiment: ThermoFluor binding assay with proMMP13(1-268); parameters: 6xHis (C); made in house; settings: pH 7.0
Outline: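 Thermal shift binding with 3.5 μM protein and 25 μM 1,8-ANS in 50 mM HEPES pH 7.0, 100 mM NaCl, 0.001% Tween-20, 2.5 mM MgCl2, 300 μM CaCl2. Samples were heated 40 to 90 °C at 1 °C/min, fluorescence read at 500 nm. Tm shifts across an 11-point DMSO dilution series were fitted with DSC-derived thermodynamic parameters.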

| Structure (SMILES) | Kd [1] [nM] | Kd [2] [nM] | IC50 [3] [nM] | Kd [4] [nM] |
| --- | --- | --- | --- | --- |
| COc1ccc(S(C)(=O)=O)cc1Nc1nc(-c2sc(NC(C)=O)nc2C)cs1 [Example 74, N-[2-(5-Methanesulfonyl-2-methoxy-phenylamino)-4′-methyl-[4,5]bithiazolyl-2′-yl]acetamide.HBr] | 1800 | 500 | 2500 | 2400 |
| COc1ccc(S(C)(=O)=O)cc1Nc1nc(-c2sc(N)nc2C)cs1 [Example 75, N^2-(5-Methanesulfonyl-2-methoxy-phenyl)-4′-methyl-[4,5′]bithiazolyl-2,2′-diamine.HBr] | 1100 | 600 | 1600 | 1500 |
| Cc1nc(C)c(-c2csc(Nc3cc(C(=O)O)ccc3OC(C)C)n2)s1 [Example 76, 3-(2′,4′-Dimethyl-[4,5′]bithiazolyl-2-ylamino)-4-isopropoxy-benzoic acid] | 570 | 780 | 430 | 370 |
| CCOc1ccc(-c2ncco2)cc1Nc1nc(-c2sc(N)nc2C)cs1 [Example 79, N^2-(2-Ethoxy-5-oxazol-2-yl-phenyl)-4′-methyl-[4,5′]bithiazolyl-2,2′diamine.HBr] | 1200 | 52 | 550 | 240 |
| CCOc1ccc(-c2ncco2)cc1Nc1nc(-c2sc(C)nc2C)cs1 [Example 80, (2′,4′-Dimethyl-[4,5′]bithiazolyl-2-yl)-(2-ethoxy-5-oxazol-2-yl-phenyl)-amine.TFA] | 23000 | 1800 | 650 | 3600 |
| CCOC(=O)c1ccc(OCC)c(Nc2nc(-c3sc(N)nc3C)cs2)c1 [Example 81, 3-(2′-Amino-4′-methyl-[4,5′]bithiazolyl-2-ylamino)-4-ethoxy-benzoic acid ethyl ester.TFA] | 520 | 620 | 640 | 370 |
| CCOC(=O)c1ccc(OCC)c(Nc2nc(-c3sc(NC(C)=O)nc3C)cs2)c1 [Example 83, 3-(2′-Acetylamino-4′-methyl-[4,5′]bithiazolyl-2-ylamino)-4-ethoxy-benzoic acid ethyl ester.HBr] | 3900 | 490 | 480 | 1500 |
| COc1ccc(C(N)=O)cc1Nc1nc(-c2sc(NC(C)=O)nc2C)cs1 [Example 85, 3-(2′-Acetylamino-4′-methyl-[4,5′]bithiazolyl-2-ylamino)-4-methoxy-benzamide.HBr] | 3500 | 750 | 270 | 43000 |
| COC(=O)c1ccc(OC)c(Nc2nc(-c3sc(N)nc3C)cs2)c1 [Example 86, 3-(2′-Amino-4′-methyl-[4,5′]bithiazolyl-2-ylamino)-4-methoxy-benzoic acid methyl ester TFA] | 1200 | 200 | 610 | 3400 |
| Cc1nc(-c2ccncc2)sc1-c1csc(Nc2cc(C(N)=O)ccc2OC(C)C)n1 [Example 98, 4-Isopropoxy-3-(4′-methyl-2′-pyridin-4-yl-[4,5′]bithiazolyl-2-ylamino)-benzamide.TFA] | > 95000 | 670 | 620 | 2300 |
| Cc1nc(C(=O)O)sc1-c1csc(Nc2cc(C(N)=O)ccc2OC(C)C)n1 [Example 100, 2-(5-Carbamoyl-2-isopropoxy-phenylamino)-4′-methyl-[4,5′]bithiazolyl-2′-carboxylic acid] | 760 | 320 | 220 | 1400 |
| CCN1CCN(C(=O)c2nc(C)c(-c3csc(Nc4cc(C(N)=O)ccc4OC(C)C)n3)s2)CC1 [Example 102, 3-[2′-(4-Ethyl-piperazine-1-carbonyl)-4′-methyl-[4,5′]bithiazolyl-2-ylamino]-4-isopropoxy-benzamide.TFA] | 700 | 730 | 130 | 660 |
| Cc1nc(C(=O)N2CCN(C(C)C)CC2)sc1-c1csc(Nc2cc(C(N)=O)ccc2OC(C)C)n1 [Example 103, 4-Isopropoxy-3-[2′-(4-isopropyl-piperazine-1-carbonyl)-4′-methyl-[4,5]bithiazolyl-2-ylamino]-benzamide.TFA] | 480 | 1000 | 97 | 450 |
| Cc1nc(C(=O)N2CCCN(C)CC2)sc1-c1csc(Nc2cc(C(N)=O)ccc2OC(C)C)n1 [Example 104, 4-Isopropoxy-3-[4′-methyl-2′-(4-methyl-[1,4]diazepane-1-carbonyl)-[4,5′]bithiazolyl-2-ylamino]-benzamide.TFA] | 460 | 610 | 130 | 530 |

Now those with a lower Kd [1], led by results:

| Kd [1] [nM] | Kd [2] [nM] | IC50 [3] [nM] | Kd [4] [nM] | Structure (SMILES) |
| --- | --- | --- | --- | --- |
| 280 | 95 | 870 | 42 | Cc1nc(N)sc1-c1csc(Nc2cc(C#N)ccc2OC(C)C)n1 [Example 71, 3-(2′-Amino-4′-methyl-[4,5′]bithiazolyl-2-ylamino)-4-isopropoxy-benzonitrile.HBr] |
| 400 | 380 | 1200 | 3000 | COc1ccc(C(N)=O)cc1Nc1nc(-c2sc(N)nc2C(F)(F)F)cs1 [Example 87, 3-(2′-Amino-4′-trifluoromethyl-[4,5′]bithiazolyl-2-ylamino)-4-methoxy-benzamide.TFA] |
| 100 | 650 | 380 | 950 | Cc1nc(N(C)C)sc1-c1csc(Nc2cc(C(N)=O)ccc2OC(C)C)n1 [Example 88, 3-(2′-Dimethylamino-4′-methyl-[4,5′]bithiazolyl-2-ylamino)-4-isopropoxy-benzamide.TFA] |
| 63 | 390 | 330 | 710 | Cc1nc(N2CCOCC2)sc1-c1csc(Nc2cc(C(N)=O)ccc2OC(C)C)n1 [Example 89, 4-Isopropoxy-3-(4′-methyl-2′-morpholin-4-yl-[4,5′]bithiazolyl-2-ylamino)-benzamide.TFA] |
| 37 | 170 | 100 | 680 | Cc1nc(N2CCN(C)CC2)sc1-c1csc(Nc2cc(C(N)=O)ccc2OC(C)C)n1 [Example 90, 4-Isopropoxy-3-[4′-methyl-2′-(4-methyl-piperazin-1-yl)-[4,5′]bithiazolyl-2-ylamino]-benzamide.TFA] |
| 310 | 1700 | 400 | 6100 | CCN(CC)c1nc(C)c(-c2csc(Nc3cc(C(N)=O)ccc3OC(C)C)n2)s1 [Example 94, 3-(2′-Diethylamino-4′-methyl-[4,5′]bithiazolyl-2-ylamino)-4-isopropoxy-benzamide.TFA] |
| 220 | 2800 | 410 | 4100 | Cc1nc(Nc2cccnc2)sc1-c1csc(Nc2cc(C(N)=O)ccc2OC(C)C)n1 [Example 95, 4-Isopropoxy-3-[4′-methyl-2′-(pyridin-3-ylamino)-[4,5′]bithiazolyl-2-ylamino]-benzamide.TFA] |
| 280 | 3800 | ~5000 | 16000 | Cc1nc(Nc2ccccn2)sc1-c1csc(Nc2cc(C(N)=O)ccc2OC(C)C)n1 [Example 96, 4-Isopropoxy-3-[4′-methyl-2′-(pyridin-2-ylamino)-[4,5′]bithiazolyl-2-ylamino]-benzamide.TFA] |
| 270 | 1100 | 590 | 2400 | CCOC(=O)c1nc(C)c(-c2csc(Nc3cc(C(N)=O)ccc3OC(C)C)n2)s1 [Example 99, 2-(5-carbamoyl-2-isopropoxy-phenylamino)-4′-methyl-[4,5′]bithiazolyl-2′-carboxylic acid ethyl esterHBr] |
| 290 | 1100 | 170 | 510 | Cc1nc(C(=O)N2CCN(C)CC2)sc1-c1csc(Nc2cc(C(N)=O)ccc2OC(C)C)n1 [Example 101, 4-Isopropoxy-3-[4′-methyl-2′-(4-methyl-piperazine-1-carbonyl)-[4,5′]bithiazolyl-2-ylamino]-benzamide.TFA] |
